# From patent publication US20020132853A1, “Capsaicin receptor ligands” (priority 2000, published 2002)
# Target: T1, human capsaicin receptor (Homo sapiens, UniProt Q8NER1)
# T1 construct: expression consrtuct encoding the full length human capsaicin receptor; expressed in transfected cells
# Assay: Antagonist assay for Capsaicin receptor mediated calcium mobilization
# Type: cell-based
# Conditions: Table III, read-out: EC50 (the source's name)
# Protocol: Calcium Mobilization Assay
# Cells transfected with expression plasmids (as described in Example 10) and thereby expressing the human capsaicin receptor are seeded and grown to 70-90% confluency in FALCON black-walled, clear-bottomed 96-well plates (#3904, BECTON-DICKINSON, Franklin Lakes, N.J.) . The culture media are emptied from the 96 well plates and FLUO-3 AM calcium sensitive dye (Molecular Probes, Eugene, OR) is added to each well (dye solution: 1 mg FLUO-3 AM, 440 uL DMSO and 440 ul 20% pluronic acid in DMSO, diluted 1:4, 50 ul diluted solution per well). Plates are covered with aluminum foil and incubated at 37° C for 1-2 hours in an environment containing 5% CO2. After the incubation the dye is emptied from the plates, and the cells are washed once with Krebs-Ringer HEPES (KRH) buffer (25 mM HEPES, 5 mM KCl, 0.96 mM NaH2PO4, 1 MM MgSO4, 2 mM CaCl2, 5 mM glucose, 1 mM probenecid, pH 7.4), and resuspended in KRH buffer.
# Agonist (e.g., olvanil, capsaicin, or RTX)-induced calcium mobilization is monitored using either FLUOROSKAN ASCENT (Labsystems, Franklin, Mass.) or FLIPR (fluorometric imaging plate reader system, Molecular Devices, Sunnyvale, Calif.) instruments. Similarly, varying concentrations of the antagonists ruthenium red or capsazepine are added to cells concurrently with agonist (e.g., 25-50 nM capsaicin). For agonist-induced calcium responses, data obtained between 30 and 60 seconds after agonist application are used to generate the EC50 values. […] software (Synergy Software, Reading, Pa.) was utilized to fit the data to the equation: […]
# to determine the EC50 for the response. In this equation, y is the maximum fluorescence signal, x is the concentration of the agonist or antagonist, a is the Emax, b corresponds to the EC50 or IC50 value, and finally, c is the Hill coefficient.
# Assay for Determination of Capsaicin Receptor Antagonist Effects
# In order to measure the ability of a test compound to antagonize (inhibit) the response of cells expressing capsaicin receptors to capsaicin or other vanilloid agonist, the EC50 of capsaicin is first determined.
# An additional 20 ul of KRH buffer and 1 ul DMSO is added to each well of cells, prepared as described above. 100 ul capsaicin in KRH buffer is automatically transferred by the FLIPR instrument to each well.
# Test compounds are dissolved in DMSO, diluted in 20 ul KRH buffer so that the final concentration of test compounds in the assay well is between 1 uM and 5 uM, and added to cells prepared as described above. The 96 well plates containing prepared cells and test compounds are incubated in the dark, at room temperature for 0.5-6 hours. It is important that the incubation not continue beyond 6 hours. Just prior to determining the fluorescence response, 100 ul capsaicin in KRH buffer at twice the EC50 concentration determined from the concentration response curve is automatically added by the FLIPR instrument to each well of the 96 well plate for a final sample volume of 200 ul and a final capsaicin concentration equal to the EC50. The final concentration of test compounds in the assay wells is between 1 uM and 5 uM. […] Antagonists of the capsaicin receptor decrease this response by about 20%, preferably by about 50%, and most preferably by at least 80% as compared to matched control. The concentration of antagonist required to provide a 50% decrease is the EC50 for the antagonist (also referred to as the IC50).
# T1 sequence (Q8NER1 whole entry): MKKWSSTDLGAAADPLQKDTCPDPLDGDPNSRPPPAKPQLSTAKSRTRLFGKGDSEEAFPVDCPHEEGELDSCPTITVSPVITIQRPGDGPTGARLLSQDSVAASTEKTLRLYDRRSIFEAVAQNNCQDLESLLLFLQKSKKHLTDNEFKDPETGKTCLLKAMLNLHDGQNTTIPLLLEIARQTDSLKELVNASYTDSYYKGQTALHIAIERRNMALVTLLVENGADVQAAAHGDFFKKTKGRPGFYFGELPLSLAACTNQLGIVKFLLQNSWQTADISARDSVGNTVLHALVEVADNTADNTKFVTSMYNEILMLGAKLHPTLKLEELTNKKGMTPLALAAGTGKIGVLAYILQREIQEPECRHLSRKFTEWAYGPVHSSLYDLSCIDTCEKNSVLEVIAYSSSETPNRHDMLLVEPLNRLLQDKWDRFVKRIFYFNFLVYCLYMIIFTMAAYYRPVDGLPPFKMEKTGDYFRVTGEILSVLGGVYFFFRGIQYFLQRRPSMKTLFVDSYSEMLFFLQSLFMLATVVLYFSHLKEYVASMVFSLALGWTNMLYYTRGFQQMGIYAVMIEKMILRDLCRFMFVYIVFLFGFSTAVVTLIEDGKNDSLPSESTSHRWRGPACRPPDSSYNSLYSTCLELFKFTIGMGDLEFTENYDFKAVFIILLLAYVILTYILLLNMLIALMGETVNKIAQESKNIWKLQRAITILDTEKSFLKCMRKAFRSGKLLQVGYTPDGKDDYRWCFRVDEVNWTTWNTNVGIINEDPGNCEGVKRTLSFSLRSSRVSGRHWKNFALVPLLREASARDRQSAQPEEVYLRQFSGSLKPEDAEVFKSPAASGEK
row,IC50 [nM],Compound
1,< 1000,"C[C@@H]1CN(c2ncccc2F)CCN1C(=O)Nc1ccc(C2CCCC2)cc1 [Compound 79, (2R)-N-(4-cyclopentylphenyl)-4-(3-fluoropyridin-2-yl)-2-methylpiperazine-1-carboxamide]"
2,< 1000,"COc1cccnc1N1CCN(C(=O)Nc2ccc(C(C)(C)C)cc2)[C@H](C)C1 [Compound 45, (2R)-N-(4-tert-butylphenyl)-4-(3-methoxypyridin-2-yl)-2-methylpiperazine-1-carboxamide]"
3,< 1000,"CC(C)c1ccc(NC(=O)N2CCN(c3ncccc3C(F)(F)F)C[C@H]2C)cc1 [Compound 30, (2R)-N-(4-isopropylphenyl)-2-methyl-4-[3-(trifluoromethyl)pyridin-2-yl]piperazine-1-carboxamide]"
4,< 1000,"COCC(C)(C)c1ccc(NC(=O)N2CCN(c3ncccc3C(F)(F)F)C[C@H]2C)cc1 [Compound 55, (2R)-N-[4-(2-methoxy-1,1-dimethylethyl)phenyl]-2-methyl-4-[3-(trifluoromethyl)pyridin-2-yl]piperazine-1-carboxamide]"
5,< 1000,"C[C@@H]1CN(c2ncccc2C(F)(F)F)CCN1C(=O)Nc1ccc(C2(O)CCOCC2)cc1 [Compound 51, (2R)-N-[4-(4-hydroxytetrahydro-2H-pyran-4-yl)phenyl]-2-methyl-4-[3-(trifluoromethyl)pyridin-2-yl]piperazine-1-carboxamide]"
6,< 1000,"CC(C)c1ccc(NC(=O)N2C(C)CN(c3ncccc3Cl)CC2C)cc1 (centres unmarked) [Compound 33, 4-(3-chloropyridin-2-yl)-N-(4-isopropylphenyl)-2,6-dimethylpiperazine-1-carboxamide]"
7,< 1000,"CC1CN(c2ncccc2Cl)CC(C)N1C(=O)Nc1ccc(C(F)(F)F)cc1 (centres unmarked) [Compound 31, 4-(3-chloropyridin-2-yl)-2,6-dimethyl-N-[4-(trifluoromethyl)phenyl]piperazine-1-carboxamide]"
8,< 1000,"C[C@@H]1CN(c2ncccc2Cl)CCN1C(=O)Nc1ccc(N2CCCCC2)cc1 [Compound 26, (2R)-4-(3-chloropyridin-2-yl)-2-methyl-N-(4-piperidin-1-ylphenyl)piperazine-1-carboxamide]"
9,< 1000,"CC(C)C1CN(c2ncccc2C(F)(F)F)CCN1C(=O)Nc1ccc(C(F)(F)F)cc1 (centres unmarked) [Compound 73, 2-isopropyl-N-[4-(trifluoromethyl)phenyl]-4-[3-(trifluoromethyl)pyridin-2-yl]piperazine-1-carboxamide]"
10,< 1000,"C[C@@H]1CN(c2ncccc2C(F)(F)F)CCN1C(=O)Nc1ccc(C2CCCC2)cc1 [Compound 37, (2R)-N-(4-cyclopentylphenyl)-2-methyl-4-[3-(trifluoromethyl)pyridin-2-yl]piperazine-1-carboxamide]"
11,< 1000,"C[C@H]1CN(c2ncccc2Cl)CCN1C(=O)Nc1ccc(C(C)(C)C)cc1 [Compound 24, (2S)-N-(4-tert-butylphenyl)-4-(3-chloropyridin-2-yl)-2-methylpiperazine-1-carboxamide]"
12,< 1000,"CC(C)c1ccc(NC(=O)N2CCN(c3nccc4ccccc34)C[C@H]2C)cc1 [Compound 40, (2R)-N-(4-isopropylphenyl)-4-isoquinolin-1-yl-2-methylpiperazine-1-carboxamide]"

# Same assay, conditions: Table IV, read-out: EC50 (the source's name)
row,IC50 [nM],Compound
1,< 1000,"C[C@@H]1CN(c2nccnc2Cl)CCN1C(=O)Nc1ccc(C(C)(C)C)cc1 [Compound 95, (2R)-N-(4-tert-butylpghenyl)-4-(3-chloropyrazin-2-yl)-2-methylpiperazine-1-carboxamide]"
2,< 1000,"CC(C)c1ccc(NC(=O)N2CCN(c3nccnc3Cl)C[C@H]2C)cc1 [Compound 96, (2R)-4-(3-chloropyrazin-2-yl)-N-(4-isopropylphenyl)-2-methylpiperazine-1-carboxamide]"

# Same assay, conditions: Table V, read-out: EC50 (the source's name)
row,IC50 [nM],Compound
1,< 1000,"C=C(c1ccc(NC(=O)N2CCN(c3ncccc3C(F)(F)F)C[C@H]2C)cc1)C(F)(F)F [Compound 126, (2R)-2-methyl-4-[3-(trifluoromethyl)pyridin-2-yl]-N-{4-[1-(trifluoromethyl)vinyl]phenyl}piperazine-1-carboxamide]"
2,< 1000,"C[C@@H]1CN(c2ncc([N+](=O)[O-])cc2Cl)CCN1C(=O)Nc1ccc(C(F)(F)F)cc1 [Compound 131, (2R)-4-(3-chloro-5-nitrpyridin-2-yl)-2-methyl-N-[4-(trifluoromethyl)phenyl]piperazine-1-carboxamide]"
3,< 1000,"O=C(Nc1ccc(OC(F)(F)F)cc1)N1CCN(c2cc(C(F)(F)F)ccn2)CC1 [Compound 108, N-[4-*trifluoromethoxy)phenyl]-4-[4-(trifluoromethyl)pyririn-2-yl]piperazine-1-carboxamide]"
4,< 1000,"Cc1cc(NC(=O)N2CCN(c3ncccc3Cl)C[C@H]2C)ccc1C(F)(F)F [Compound 121, (2R)-4-(3-chloropyridin-2-yl)-2-methyl-N-[3-methyl-4-(trifluoromethyl)phenyl]piperazine-1-carboxamide]"
5,< 1000,"C[C@@H]1CN(c2ncccc2C(F)(F)F)CCN1C(=O)Nc1ccc(F)c(C(F)(F)F)c1 [Compound 161, (2R)-N-[4-fluoro-3-(trifluoromethyl)phenyl]-2-methyl-4-[3-(trifluoromethyl)pyridin-2-yl]piperazine-1-carboxamide]"
6,< 1000,"C[C@@H]1CN(c2ncccc2C(F)(F)F)CCN1C(=O)Nc1ccc(C(C(F)(F)F)(C(F)(F)F)C(F)(F)F)cc1 [Compound 149, (2R)-2-methyl-N-{4-[2,2,2-trifluoro-1,1-bis(trifluoromethyl)-ethyl]phenyl}-4-[3-(trifluoromethyl)pyridin-2-yl]piperazine-1-carboxamide]"
7,< 1000,"O=C(Nc1ccc(Cl)c([N+](=O)[O-])c1)N1CCN(c2ncccc2C(F)(F)F)CC1 [Compound 118, N-(4-chloro-3-nitrophenyl)-4-[3-(trifluoromethyl)pyridin-2-yl]piperazine-1-carboxamide]"
8,< 1000,"C[C@@H]1CN(c2ncccc2Cl)CCN1C(=O)Nc1ccc(I)cc1 [Compound 141, (2R)-4-(3-chloropyridin-2-yl)-N-(4-iodophenyl)-2-methylipierazine-1-carboxamide]"
9,< 1000,"C[C@@H]1CN(c2ncccc2C(F)(F)F)CCN1C(=O)Nc1ccc(Br)c(C(F)(F)F)c1 [Compound 157, (2R)-N-[4-bromo-3-(trifluoromethyl)phenyl]-2-methyl-4-[3-(trifluoromethyl)pyridin-2-yl]piperazine-1-carboxamide]"
10,< 1000,"O=C(Nc1cc(Cl)cc(Cl)c1)N1CCN(c2ncccc2C(F)(F)F)CC1 [Compound 119, N-(3,5-dichlorophenyl)-4-[3-(trifluoromethyl)pyridin-2-yl]piperazine-1-carboxamide]"
11,< 1000,"CCC(C)c1ccc(NC(=O)N2CCN(c3ncccc3F)C[C@H]2C)cc1 (stereo partly drawn) [Compound 128, (2R)-N-(4-sec-butylphenyl)-4-(3-fluoropyridin-2-yl)-2-methylpiperazine-1-carboxamide]"
12,< 1000,"Cc1ccc(NC(=O)N2CCN(c3ncccc3C(F)(F)F)C[C@H]2C)cc1C(F)(F)F [Compound 155, (2R)-2-methyl-N-[4-methyl-3-(trifluoromethyl)phenyl]-4-[3-(trifluoromethyl)pyridin-2-yl]piperazine-1-carboxamide]"
13,< 1000,"C[C@@H]1CN(c2ncc(N)cc2Cl)CCN1C(=O)Nc1ccc(C(F)(F)F)cc1 [Compound 132, (2R)-4-(5-amino-3-chloropyridin-2-yl)-2-methyl-N-[4-(trifluoromethyl)phenyl]piperazine-1-carboxamide]"

# Same assay, conditions: Table VI, read-out: EC50 (the source's name)
row,IC50 [nM],Compound
1,< 1000,C[C@H]1CN(c2ncccc2Cl)CCN1C(=S)Nc1ccc(C(C)(C)C)cc1 [Compound 171]
2,< 1000,CC(C)c1ccc(NC(=S)N2CCN(c3ncccc3Cl)C[C@@H]2C)cc1 [Compound 170]
